The results in this text go back to PubChem BioAssay AID248 (DTP/NCI, 2004).

Toxic doses and inconclusive results are not listed.

This assay relates to L1210 leukemia ip in BDF1 mice, survival T/C. The assay is described as follows: NCI In Vivo Anticancer Drug Screen. Data for tumor model L1210 Leukemia (intraperitoneal) in B6D2F1 (BDF1) mice. The following applies: endpoint: mean survival time, higher = longer survival. The essentials: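 Value reflects the ratio of survival in compound-treated mice to survival in vehicle-treated controls, with both groups carrying the same transplanted tumor.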

Where [1] appears, read: dose: 100.0 mg/kg/injection, schedule: Q01DX001 (ip), vehicle: saline.
The mark [2] stands for this setting: dose: 200.0 mg/kg/injection, schedule: Q01DX001 (ip), vehicle: saline.
[3] abbreviates: dose: 400.0 mg/kg/injection, schedule: Q01DX001 (ip), vehicle: saline.
[4] abbreviates: dose: 25.0 mg/kg/injection, schedule: Q01DX009 (ip), vehicle: Klucel (hydroxypropylcellulose) (HPC).
Where [5] appears, read: dose: 50.0 mg/kg/injection, schedule: Q01DX009 (ip), vehicle: Klucel (hydroxypropylcellulose) (HPC).
The mark [6] stands for this setting: dose: 100.0 mg/kg/injection, schedule: Q01DX009 (ip), vehicle: Klucel (hydroxypropylcellulose) (HPC).
The mark [7] stands for this setting: dose: 100.0 mg/kg/injection, schedule: Q04DX003 (ip), vehicle: Klucel (hydroxypropylcellulose) (HPC).
Setting [8] is: dose: 200.0 mg/kg/injection, schedule: Q01DX009 (ip), vehicle: Klucel (hydroxypropylcellulose) (HPC).
Setting [9] is: dose: 200.0 mg/kg/injection, schedule: Q04DX003 (ip), vehicle: Klucel (hydroxypropylcellulose) (HPC).
Where [10] appears, read: dose: 400.0 mg/kg/injection, schedule: Q04DX003 (ip), vehicle: Klucel (hydroxypropylcellulose) (HPC).
The mark [11] stands for this setting: dose: 100.0 mg/kg/injection, schedule: Q01DX009 (ip), vehicle: saline with Tween-80.
Where [12] appears, read: dose: 200.0 mg/kg/injection, schedule: Q01DX009 (ip), vehicle: saline with Tween-80.
Setting [13] is: dose: 100.0 mg/kg/injection, schedule: Q04DX003 (ip), vehicle: saline.

For the compound `CC(NC(=O)CNC(=O)c1cnc2ccccc2n1)C(=O)O` (stereo not given), the T/C is, setting by setting: under setting [1], 100 % of control; under setting [2], 101 % of control; under setting [3], 94 % of control.
For `O=CNc1cc(Cl)cc(Cl)c1`, the T/C reads like this: under setting [4], 97 % of control; under setting [5], 94 % of control; under setting [6], 114 % of control.
Take `CCOC(=O)CC(=O)Cc1cccc([N+](=O)[O-])c1`: the T/C was 91 % of control under setting [6]; 100 % of control under setting [7]; 88 % of control under setting [8]; 107 % of control under setting [9]; 107 % of control under setting [10].
Take `O=S(=O)(O)CS(=O)(=O)O`: the T/C (dose: 5.0 mg/kg/injection, schedule: Q01DX001 (ip), vehicle: saline) is 101 % of control; the T/C (dose: 10.0 mg/kg/injection, schedule: Q01DX001 (ip), vehicle: saline) was 100 % of control; the T/C (dose: 20.0 mg/kg/injection, schedule: Q01DX001 (ip), vehicle: saline) is 97 % of control; the T/C (dose: 40.0 mg/kg/injection, schedule: Q01DX001 (ip), vehicle: saline) was 101 % of control.
As for `CCC(N)(CO)CO`, the T/C reads like this: (dose: 100.0 mg/kg/injection, schedule: Q04DX003 (ip), vehicle: saline with Tween-80) 98 % of control; (dose: 200.0 mg/kg/injection, schedule: Q04DX003 (ip), vehicle: saline with Tween-80) 95 % of control; (dose: 400.0 mg/kg/injection, schedule: Q04DX003 (ip), vehicle: saline with Tween-80) 95 % of control.
For `O=S1(=O)CC(N2CCCCC2)C1CN1CCCCC1` (stereo not given), the T/C runs as follows: (dose: 75.0 mg/kg/injection, schedule: Q01DX001 (ip), vehicle: saline) 97 % of control; (dose: 150.0 mg/kg/injection, schedule: Q01DX001 (ip), vehicle: saline) 89 % of control.
`CCCNC(c1ccccc1)=[N+]1C(C)CCCC1C` (stereo not given): the T/C (dose: 12.5 mg/kg/injection, schedule: Q04DX002 (ip), vehicle: saline) was 101 % of control and the T/C (dose: 25.0 mg/kg/injection, schedule: Q04DX002 (ip), vehicle: saline) was 109 % of control.
In the case of `OCc1nc2cc(Cl)c(Cl)cc2[nH]1`, the T/C under setting [1] is 93 % of control, the T/C under setting [2] is 96 % of control and the T/C under setting [3] is 102 % of control.
On to `O=C1Nc2ccc(Br)cc2C1(O)Cc1cccc([N+](=O)[O-])c1` (stereo not given), for which the T/C was 90 % of control (dose: 50.0 mg/kg/injection, schedule: Q01DX009 (ip), vehicle: saline with Tween-80); 93 % of control under setting [11]; 91 % of control (dose: 100.0 mg/kg/injection, schedule: Q04DX002 (ip), vehicle: saline with Tween-80); 90 % of control under setting [12]; 91 % of control (dose: 200.0 mg/kg/injection, schedule: Q04DX002 (ip), vehicle: saline with Tween-80).
Consider `CCCCCCCCNC(=O)CCCCC(=O)NCCCCCCCC`, for which the T/C is, setting by setting: under setting [6], 91 % of control; under setting [7], 90 % of control; under setting [8], 86 % of control; under setting [9], 90 % of control; (dose: 400.0 mg/kg/injection, schedule: Q01DX009 (ip), vehicle: Klucel (hydroxypropylcellulose) (HPC)) 95 % of control; under setting [10], 101 % of control.
For the compound `CN(C)N=Nc1ccccc1C(N)=O`, the T/C by setting is: (dose: 20.0 mg/kg/injection, schedule: Q01DX009 (ip), vehicle: Klucel (hydroxypropylcellulose) (HPC)) 110 % of control; (dose: 30.0 mg/kg/injection, schedule: Q01DX009 (ip), vehicle: Klucel (hydroxypropylcellulose) (HPC)) 110 % of control; (dose: 31.25 mg/kg/injection, schedule: Q01DX009 (ip), vehicle: saline with Tween-80) 108 % of control; (dose: 37.25 mg/kg/injection, schedule: Q01DX009 (ip), vehicle: saline with Tween-80) 112 % of control; (dose: 37.5 mg/kg/injection, schedule: Q04DX003 (ip), vehicle: saline with Tween-80) 108 % of control; (dose: 45.0 mg/kg/injection, schedule: Q01DX009 (ip), vehicle: Klucel (hydroxypropylcellulose) (HPC)) 119 % of control. In addition, the T/C is 104 % of control (dose: 55.25 mg/kg/injection, schedule: Q04DX003 (ip), vehicle: saline with Tween-80); 111 % of control (dose: 62.5 mg/kg/injection, schedule: Q01DX001 (ip), vehicle: saline with Tween-80); 120 % of control (dose: 67.0 mg/kg/injection, schedule: Q01DX009 (ip), vehicle: other); 102 % of control (dose: 67.0 mg/kg/injection, schedule: Q01DX009 (ip), vehicle: saline with Tween-80); 119 % of control (dose: 74.5 mg/kg/injection, schedule: Q01DX009 (ip), vehicle: saline with Tween-80); 107 % of control (dose: 75.0 mg/kg/injection, schedule: Q01DX001 (ip), vehicle: other). The T/C (dose: 75.0 mg/kg/injection, schedule: Q04DX003 (ip), vehicle: saline with Tween-80) is 116 % of control; the T/C under setting [11] was 109 % of control; the T/C (dose: 110.5 mg/kg/injection, schedule: Q04DX003 (ip), vehicle: saline with Tween-80) was 122 % of control; the T/C (dose: 125.0 mg/kg/injection, schedule: Q01DX001 (ip), vehicle: saline with Tween-80) is 110 % of control; the T/C (dose: 125.0 mg/kg/injection, schedule: Q01DX009 (ip), vehicle: saline with Tween-80) was 86 % of control; the T/C (dose: 149.0 mg/kg/injection, schedule: Q01DX009 (ip), vehicle: saline with Tween-80) was 156 % of control. Moreover, the T/C reads like this: (dose: 150.0 mg/kg/injection, schedule: Q01DX001 (ip), vehicle: other) 107 % of control; (dose: 150.0 mg/kg/injection, schedule: Q01DX001 (ip), vehicle: saline with Tween-80) 109 % of control; (dose: 150.0 mg/kg/injection, schedule: Q01DX009 (ip), vehicle: other) 150 % of control; (dose: 150.0 mg/kg/injection, schedule: Q01DX009 (ip), vehicle: saline with Tween-80) 117 % of control; (dose: 150.0 mg/kg/injection, schedule: Q04DX003 (ip), vehicle: saline with Tween-80) 120 % of control; (dose: 221.0 mg/kg/injection, schedule: Q04DX003 (ip), vehicle: saline with Tween-80) 150 % of control. For the same compound, the T/C (dose: 300.0 mg/kg/injection, schedule: Q01DX001 (ip), vehicle: other) is 123 % of control and the T/C (dose: 300.0 mg/kg/injection, schedule: Q04DX003 (ip), vehicle: saline with Tween-80) is 106 % of control.
With `NNCCc1ccccc1`, the T/C is 105 % of control (dose: 6.25 mg/kg/injection, schedule: Q01DX009 (ip), vehicle: saline); 101 % of control (dose: 12.5 mg/kg/injection, schedule: Q01DX009 (ip), vehicle: saline); 95 % of control (dose: 25.0 mg/kg/injection, schedule: Q01DX009 (ip), vehicle: saline); 120 % of control (dose: 25.0 mg/kg/injection, schedule: Q04DX003 (ip), vehicle: saline); 104 % of control (dose: 50.0 mg/kg/injection, schedule: Q01DX009 (ip), vehicle: saline); 106 % of control (dose: 50.0 mg/kg/injection, schedule: Q04DX003 (ip), vehicle: saline). Also, the T/C under setting [13] is 111 % of control.
Consider `CC(C)CC(C)(O)C(N)=O` (stereo not given), for which the T/C under setting [13] is 102 % of control; the T/C (dose: 200.0 mg/kg/injection, schedule: Q04DX003 (ip), vehicle: saline) is 102 % of control; the T/C (dose: 400.0 mg/kg/injection, schedule: Q04DX003 (ip), vehicle: saline) was 91 % of control.
In the case of `O=C(O)c1cc2oc3ccccc3c2cc1O`, the T/C is, setting by setting: under setting [6], 94 % of control; under setting [7], 98 % of control; under setting [8], 100 % of control; under setting [9], 95 % of control; under setting [10], 93 % of control.
Turning to `CCC(C(N)=O)C1=CCCCC1` (stereo not given), the T/C is 95 % of control under setting [11]; 93 % of control under setting [12]; 98 % of control (dose: 400.0 mg/kg/injection, schedule: Q01DX009 (ip), vehicle: saline with Tween-80).
On to `Clc1ccc(SSC(Cl)(Cl)Cl)cc1`, for which the T/C reads like this: under setting [4], 98 % of control; under setting [5], 88 % of control; under setting [6], 93 % of control.
As to `Cn1ncc2c(NCc3ccccc3)ncnc21`, the T/C runs as follows: under setting [1], 97 % of control; under setting [2], 110 % of control.
